# According to US10092620B2, “Uses of cyclic peptides for treating and preventing atherosclerosis” (THE SCRIPPS RESEARCH INSTITUTE, priority 2013, dated 2018):
# Non-standard residues stand in square brackets, D forms with d.
# Legend:
# [1] = tested on: human plasma HDL; experiment: human plasma HDL remodeling (NDGGE, immunoblot for human apoA-I); format: biochemical; details: human plasma in vitro; Western blot for apoA-I; FIGS. 1 and 2a
# Excerpt: As an initial phase of investigation, we evaluated in vitro the effectiveness of our cyclic D,L-α-peptides to remodel mature human plasma HDLs into lipid-poor HDL (FIG. 1 and FIG. 2a). Lipid-poor HDL particles are key acceptors of cholesterol in reverse cholesterol transport and are thus crucial for combating atherosclerosis. In fact, with respect to the cholesterol efflux capacity of human sera, the levels of lipid-poor HDL correlate much better than the levels of HDL-cholesterol or apoA-I. Briefly, our assay involved incubating human plasma with a peptide, after which the plasma sample was subjected to non-denaturing gradient gel electrophoresis (NDGGE) to separate the HDL subspecies and then immunoblotted for human apoA-I. The ranked activities of the cyclic D,L-α-peptides in promoting formation of lipid-poor HDL are shown in FIG. 1. It should be noted that there are inherent variabilities associated with electrophoretic transfer, staining, and densitometric quantitation, so the peptide ranking should be viewed as an approximate guide to relative plasma HDL remodeling efficacy. Nevertheless, the rankings were similar overall whether the panel was assayed by using peptide stock solutions prepared in 10% sucrose/H2O (FIGS. 1 and 2a) or peptide stock solutions prepared in 1:1 DMSO/H2O. From these preliminary structure-activity relationship (SAR) studies, we identified a pronounced sequence dependence for efficient plasma HDL remodeling (vide infra).
# Human plasma remodeling: All procedures involving human samples were approved by TSRI Institutional Review Board. Procedures were modified from those reported in Troutt et al., J. Lipid Res. 49, 581-587, 2008. Blood samples from normal healthy human donors were obtained from TSRI Normal Blood Donor Program. EDTA-anticoagulated whole blood was centrifuged at 1500×g for 15 min within 1 h of being drawn from the donor. The plasma layer was aliquoted and used immediately or frozen at −80° C. for future use. Peptide stock solutions were prepared at ˜15 mM peptide in 50% DMSO for initial screenings, or at ˜2 mM peptide in 10% sucrose for remodeling assays at lower concentrations (FIG. 1) and cholesterol efflux assays (FIG. 2). Plasma samples (30 μL) were treated with peptide stocks, and the samples were incubated at 37° C. for 0.5-1 h, and then quenched by adding 270 μL of 50% sucrose (1:9 dilution). Samples were mixed with 6× native loading buffer (125 mM tris, pH 6.8, 0.02% bromophenol, 20% glycerol), of which 6 μL was loaded onto a 4-20% polyacrylamide gel. The molecular weight ladder used was High Molecular Weight Calibration Kit (Amersham Biosciences, #17-0445-01). […] The films were scanned and quantified by densitometry using the program LabWorks (v. 4.0.0.8). […]
# [2] = tested on: mouse macrophage J774 cells; experiment: cholesterol efflux from mouse macrophage cells incubated with peptide-treated human plasma; format: cell-based; details: J774 cells, 2% apoB-depleted peptide-treated human plasma, 4 h; FIG. 2b
# Method: Selected cyclic D,L-α-peptides were further evaluated for their ability to promote cellular cholesterol efflux from mouse macrophage J774 cells. A main factor for HDL anti-atherogenicity is its role in reverse cholesterol transport, of which cellular cholesterol efflux is a critical component. To measure efflux mediated by the cyclic D,L-α-peptides, cholesterol-laden cells were incubated with peptide-treated plasma for 4 h, after which the level of cholesterol effluxed to the media was measured as described in Sankaranarayanan et al., J. Lipid Res. 52, 2332-2340, 2011.
# Preparation of labeling medium: These procedures were modified from that reported in Sankaranarayanan et al., J. Lipid Res. 52, 2332-2340, 2011. The labeling medium was prepared by complexing the unlabeled cholesterol and BODIPY-cholesterol (20% of the total cholesterol) with methyl-β-cyclodextrin (CD) at a molar ratio of 1:40 (total cholesterol/CD). Unlabeled cholesterol and BODIPY-cholesterol were dissolved in chloroform and dried in a round bottom flask by rotor-evaporation in the dark to form a thin film. The cholesterol mixture was solubilized by adding 20 mM CD in MEM-HEPES buffer. The suspension was sonicated in a water bath (37° C.) for at 1 h, stirred at 37° C. for 3 h, filtered using a 0.45-μm syringe filter, and diluted with an equal volume of MEM-HEPES buffer containing 4 μg/mL Sandoz ACAT (acyl-CoA:cholesterol acyltransferase) inhibitor (Sigma). The final concentrations of BODIPY-cholesterol, unlabeled cholesterol, CD, and ACAT inhibitor in the labeling medium were 0.025 mM, 0.1 mM, 10 mM, and […], respectively.
# Preparation of efflux medium: Just before the initiation of the efflux assays, the human plasma frozen at −80° C. was thawed, and 80 μL of plasma was incubated with 20 μL of cyclic peptide stocks (peptide stocks were 1-3 mg/mL in 10% sucrose) or the vehicle (10% sucrose) at 37° C. for 30 min. The treated plasma samples (100 μL) were then incubated with 25% PEG 8000 solution in 200 mM glycine buffer, pH 8.5 (40 μL) to precipitate apoB-containing lipoproteins (Asztalos et al., J. Lipid Res. 46, 2246-2253, 2005). After a 15-min incubation, the precipitate was removed by high-speed centrifugation (13,000 rpm, 10 min, 4° C.), and the supernatant (60 μL) was immediately diluted with MEM-HEPES buffer (1.5 mL) to give ˜2% whole plasma. This solution, containing the peptide remodeled-HDL lipoprotein fraction as cholesterol acceptors, was used as the efflux medium.
# Cholesterol efflux from mouse macrophage cells: Mouse macrophage J774A.1 cells (TIB-67; American Type Culture Collection, Manassas, Va.) were seeded in 12-well culture plate at 3×10^5 cells/mL and cultured to 80-90% confluency in DMEM with 10% FBS at 5% CO2. Cells were rinsed twice with MEM-HEPES, incubated for 1 h with 0.25 ml of labeling medium containing CD/BODIPY-cholesterol/unlabeled cholesterol and 2 μg/mL Sandoz ACAT inhibitor, followed by washing twice with MEM-HEPES. The cholesterol-laden cells were equilibrated for 18 h in DMEM containing 5% LPDS, […] Sandoz ACAT inhibitor, and 0.3 mM Cpt-cAMP. After equilibration, the cells were washed twice with MEM-HEPES and incubated with 0.25 mL of efflux media for 4 h. At the end of the incubation time, the efflux media was removed and centrifuged (1200 rpm, 10 min) to remove floating cells, and the fluorescence intensity of 100 μL cell-free media was recorded using a Tecan GENios plate reader (excitation 485 nm, emission 535 nm). The obtained signals were background subtracted using the signal from unlabeled cells. The cell monolayers were rinsed twice with ice-cold MEM-HEPES and solubilized with 0.25 mL 1% cholic acid by shaking on a plate shaker for at least 4 h at room temperature; then the fluorescence intensity of 100 μL cell lysate was recorded and background subtracted using the signal from unlabeled cell lysate. […]
substance,measurement,setting,value
c[wLwErQrE] (cyclo([dW]L[dW]E[dR]Q[dR]E); SMILES CC(C)C[C@@H]1NC(=O)[C@@H](Cc2c[nH]c3ccccc23)NC(=O)[C@H](CCC(=O)O)NC(=O)[C@@H](CCCNC(=N)N)NC(=O)[C@H](CCC(N)=O)NC(=O)[C@@H](CCCNC(=N)N)NC(=O)[C@H](CCC(=O)O)NC(=O)[C@@H](Cc2c[nH]c3ccccc23)NC1=O) [SEQ ID NO:37],plasma HDL remodeling to lipid-poor HDL (in words),[1],dramatically reduced compared to that of compound 1
same,promotion of cellular cholesterol efflux (in words),[2],dramatically reduced compared to that of compound 1
